Reference: patent EP4603105A1, “PHARMACEUTICAL COMPOSITION CONTAINING CYCLIC COMPOUND HAVING SELECTIVE KRAS INHIBITORY EFFECT AGAINST HRAS AND NRAS” (CHUGAI SEIYAKU KABUSHIKI KAISHA, priority 2022, dated 2024)
Read-outs that look alike come from different tables or passages of the source.

Legend:
[1] = target: GDP-bound KRAS wild-type protein (Homo sapiens, UniProt P01116); test: Binding to KRAS by surface plasmon resonance (SPR), dissociation constant KD
Summary of the method: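 Captured GDP-RAS (~100–300 RU) was exposed to increasing compound concentrations, 75 s per step, in running buffer with 10 µM GDP, 10 mM MgCl2 and 4% DMSO at pH 7.4.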

[2] = target: GDP-bound NRAS wild-type protein (Homo sapiens, UniProt P01111); test: Binding to NRAS by surface plasmon resonance (SPR), KD and KD ratio to KRAS
Summary of the method: (§1)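 GDP-loaded biotinylated Avi-tag RAS proteins (E. coli-expressed) captured on a Biotin CAPture chip at ~100–300 RU; single-cycle kinetics at 30°C, 100 µL/min, 75 s injections of rising compound concentrations. HBS pH 7.4 running buffer with 1 mM DTT, 10 mM MgCl2, 10 µM GDP, 4% DMSO. KD from 1:1 binding fit.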

HRAS wild-type protein = HRAS wild-type protein (Homo sapiens, UniProt P01112); test: Binding to HRAS by surface plasmon resonance (SPR), KD and KD ratio to KRAS
Summary of the method: as §1

[3] = system: human lung cancer strain NCI-H441; test: NCI-H441 cell proliferation inhibitory activity (CellTiter-Glo, 4 days); type: cell-based; conditions: read-out: NCl-H441 IC50
Summary of the method: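 Readout: […] after the ATP-based reagent. Compound: serial dilutions in dimethyl sulfoxide.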

[4] = ratio of KD for GDP-bound NRAS wild-type protein to KD for KRAS
[5] = ratio of KD for HRAS wild-type protein to KD for KRAS
[6] = Single Cycle Kinetics, 1:1 binding model
[7] = ratio of KD with respect to GDP-bound NRAS wild-type protein to KD with respect to KRAS
[8] = ratio of KD with respect to HRAS wild-type protein to KD with respect to KRAS
[9] = 50% proliferation inhibitory concentration, four days

GDP-bound KRAS wild-type protein, sequence (P01116 1-188 isoform P01116-2): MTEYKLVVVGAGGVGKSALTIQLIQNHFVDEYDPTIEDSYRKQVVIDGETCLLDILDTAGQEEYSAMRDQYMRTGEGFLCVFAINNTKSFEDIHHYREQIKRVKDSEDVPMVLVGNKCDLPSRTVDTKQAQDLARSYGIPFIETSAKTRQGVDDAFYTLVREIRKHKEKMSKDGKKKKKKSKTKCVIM
HRAS wild-type protein, sequence (P01112 whole entry): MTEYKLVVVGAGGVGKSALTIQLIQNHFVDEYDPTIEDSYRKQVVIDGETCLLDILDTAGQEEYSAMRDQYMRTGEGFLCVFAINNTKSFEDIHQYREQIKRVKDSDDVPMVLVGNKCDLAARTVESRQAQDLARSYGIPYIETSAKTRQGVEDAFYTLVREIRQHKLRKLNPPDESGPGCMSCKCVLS
GDP-bound NRAS wild-type protein, sequence (P01111 whole entry): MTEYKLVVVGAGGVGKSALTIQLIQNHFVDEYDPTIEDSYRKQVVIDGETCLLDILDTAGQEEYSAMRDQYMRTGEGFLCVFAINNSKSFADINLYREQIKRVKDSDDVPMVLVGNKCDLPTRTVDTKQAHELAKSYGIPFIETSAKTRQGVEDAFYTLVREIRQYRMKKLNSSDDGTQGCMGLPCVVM

Row | Structure (SMILES) | Kd ([1]; 1:1 binding model) [nM] | NRAS /KRAS [2, 4] | HRAS /KRAS (HRAS wild-type protein; [5]) | IC50 ([3]; NCI-H441 cells, 4 days) [nM] | Kd [1, 6] [nM] | NRAS /KRAS [2, 7] | HRAS /KRAS (HRAS wild-type protein; [8]) | IC50 [3, 9] [nM] | Kd ([1]; Single Cycle Kinetics) [nM]
1 | CCC[C@H]1C(=O)N[C@@H]([C@@H](C)CC)C(=O)N(C)CC(=O)N(C)[C@H]2C/C=C\CCN(C2=O)[C@@H](CC2CCC(F)(F)CC2)C(=O)N(C)CC(=O)N[C@@H](CCc2ccc(C(F)(F)F)c(Cl)c2)C(=O)N2C[C@H](OCC)C[C@H]2C(=O)NC2(CC(C)(C)C2)C(=O)N(C)[C@@H](C(CC)CC)C(=O)N(C)[C@H](C(=O)N(C)C)CC(=O)N1C [PP2498] | 0.67 | A (a compound having 10 or more and less than 20 is denoted as A) | A (a compound having 10 or more and less than 20 is denoted as A) | 21.9 | – | – | – | – | –
2 | CCCCCC[C@H]1C(=O)N[C@@H]([C@@H](C)CC)C(=O)N(C)CC(=O)N(C)[C@H]2C/C=C\CCN(C2=O)[C@@H](Cc2ccc(C(F)(F)F)cc2)C(=O)N(C)CC(=O)N[C@@H](CCc2ccc(Cl)c(Cl)c2)C(=O)N2C[C@H](OCC)C[C@H]2C(=O)NC2(CCC2)C(=O)N(C)[C@@H](C(CC)CC)C(=O)N(C)[C@H](C(=O)N(C)C)CC(=O)N1C [PP1218] | – | – | – | – | 0.88 | AA (a compound having 20 or more is denoted as AA) | A (a compound having 10 or more and less than 20 is denoted as A) | 67.9 | –
3 | CCO[C@@H]1C[C@H]2C(=O)NC3(CCC3)C(=O)N(C)[C@@H](C(CC)CC)C(=O)N(C)[C@H](C(=O)N(C)C)CC(=O)N(C)[C@@H](CC(C)C)C(=O)N[C@@H]([C@@H](C)CC)C(=O)N(C)CC(=O)N(C)[C@H]3C/C=C\CCN(C3=O)[C@@H](Cc3ccc(C(F)(F)F)cc3)C(=O)N(C)CC(=O)N[C@@H](CCc3ccc4sccc4c3)C(=O)N2C1 [PP1225] | – | – | – | – | 1.1 | AA (a compound having 20 or more is denoted as AA) | A (a compound having 10 or more and less than 20 is denoted as A) | 92.5 | –
4 | CCCOC[C@H]1C(=O)N[C@@H]([C@@H](C)CC)C(=O)N(C)CC(=O)N(C)[C@H]2C/C=C\CCN(C2=O)[C@@H](CC2CCC(F)(F)CC2)C(=O)N(C)CC(=O)N[C@@H](CCc2ccc(C(F)(F)F)c(Cl)c2)C(=O)N2C[C@H](OCC)C[C@H]2C(=O)NC2(CC(C)(C)C2)C(=O)N(C)[C@@H](C(CC)CC)C(=O)N(C)[C@H](C(=O)N(C)C)CC(=O)N1C [PP2484] | 1 | A (a compound having 10 or more and less than 20 is denoted as A) | A (a compound having 10 or more and less than 20 is denoted as A) | 74.3 | – | – | – | – | –
5 | CCO[C@@H]1C[C@H]2C(=O)NC3(CC(C)(C)C3)C(=O)N(C)[C@@H](C3CCCC3)C(=O)N(C)[C@H](C(=O)N(C)C)CC(=O)N[C@@H](CC(C)C)C(=O)N[C@@H]([C@@H](C)CC)C(=O)N(C)CC(=O)N(C)[C@H]3C/C=C\CCN(C3=O)[C@@H](Cc3ccc(C(F)(F)F)cc3)C(=O)N(C)CC(=O)N[C@@H](CCc3cc(F)c(C(F)(F)F)c(F)c3)C(=O)N2C1 [PP3455] | – | A (a compound having 10 or more and less than 20 is denoted as A) | A (a compound having 10 or more and less than 20 is denoted as A) | 15 | – | – | – | – | 0.11
6 | CCO[C@@H]1C[C@H]2C(=O)NC3(CCC3)C(=O)N(C)[C@@H](C3CCCC3)C(=O)N(C)[C@H](C(=O)N(C)C)CC(=O)N(C)[C@@H](Cc3cccc(C#N)c3)C(=O)N[C@@H]([C@@H](C)CC)C(=O)N(C)CC(=O)N(C)[C@H]3CCCCCN(C3=O)[C@@H](Cc3ccc(C(F)(F)F)cc3)C(=O)N(C)CC(=O)N[C@@H](CCc3cc(F)c(C(F)(F)F)c(F)c3)C(=O)N2C1 [PP1172] | – | – | – | – | 0.17 | B (a compound having 3 or more and less than 10 is denoted as B) | B (a compound having 3 or more and less than 10 is denoted as B) | 48.3 | –
7 | CCC[C@H]1C(=O)N[C@@H](C2CCCC2)C(=O)N(C)CC(=O)N(C)[C@H]2C/C=C\CCN(C2=O)[C@@H](Cc2ccc(C(F)(F)F)cc2)C(=O)N(C)CC(=O)N[C@@H](CCc2cc(F)c(C(F)(F)F)c(F)c2)C(=O)N2CC3(CC3)C[C@H]2C(=O)N(C)C2(CCC2)C(=O)N(C)[C@@H](C(CC)CC)C(=O)N(C)[C@H](C(=O)N(C)C)CC(=O)N1C [PP3305] | – | AA (a compound having 20 or more is denoted as AA) | A (a compound having 10 or more and less than 20 is denoted as A) | 20.3 | – | – | – | – | 0.68
8 | CCC[C@H]1C(=O)N[C@@H]([C@@H](C)CC)C(=O)N2CCC[C@H]2C(=O)N(C)[C@H]2C/C=C\CCN(C2=O)[C@@H](Cc2ccc(C(F)(F)F)cc2)C(=O)N(C)CC(=O)N[C@@H](CCc2cc(F)c(C(F)(F)F)c(F)c2)C(=O)N2CC[C@H](OC)[C@H]2C(=O)N(C)C2(CCC2)C(=O)N(C)[C@@H](C2CCCC2)C(=O)N(C)[C@H](C(=O)N(C)C)CC(=O)N1C [PP3283] | – | A (a compound having 10 or more and less than 20 is denoted as A) | A (a compound having 10 or more and less than 20 is denoted as A) | 7.5 | – | – | – | – | 0.26
9 | CC[C@H](C)[C@@H]1NC(=O)[C@H](CC(C)C)N(C)C(=O)C[C@@H](C(=O)N2CCOCC2)N(C)C(=O)[C@H](C2CCCC2)N(C)C(=O)C2(CCC2)NC(=O)[C@@H]2CCCN2C(=O)[C@H](CCc2cc(F)c(C(F)(F)F)c(F)c2)NC(=O)CN(C)C(=O)[C@H](Cc2ccc(C(F)(F)F)cc2)N2C[C@H](C)[C@H](C)C[C@@H](C2=O)N(C)C(=O)[C@@H]2CCN2C1=O [PP1367] | – | – | – | – | 0.34 | A (a compound having 10 or more and less than 20 is denoted as A) | B (a compound having 3 or more and less than 10 is denoted as B) | 29.3 | –
10 | CCO[C@@H]1C[C@H]2C(=O)NC3(CC(C)(C)C3)C(=O)N(C)[C@@H](C3CCCC3)C(=O)N(C)[C@H](C(=O)N(C)CC)CC(=O)N(C)[C@@H]([C@H](C)OC)C(=O)N[C@@H]([C@@H](C)CC)C(=O)N(C3CC3)CC(=O)N(C)[C@H]3C/C=C\CCN(C3=O)[C@@H](Cc3ccc(C)cc3)C(=O)N(C)CC(=O)N[C@@H](CCc3ccc(C(F)(F)F)c(OC)c3)C(=O)N2C1 [PP3228] | – | A (a compound having 10 or more and less than 20 is denoted as A) | A (a compound having 10 or more and less than 20 is denoted as A) | 41.5 | – | – | – | – | 0.81
11 | CCC[C@H]1C(=O)N[C@@H]([C@@H](C)CC)C(=O)N(C)CC(=O)N(C)[C@H]2C/C=C\CCN(C2=O)[C@@H](Cc2ccc(C(F)(F)F)cc2)C(=O)N(C)CC(=O)N[C@@H](CCc2cc(F)c(C(F)(F)F)c(F)c2)C(=O)N2CC[C@H](OC)[C@H]2C(=O)N(C)C2(CCC2)C(=O)N(C)[C@@H](C2CCCC2)C(=O)N(C)[C@H](C(=O)N(C)C)CC(=O)N1C [PP3284] | – | A (a compound having 10 or more and less than 20 is denoted as A) | A (a compound having 10 or more and less than 20 is denoted as A) | 5 | – | – | – | – | 0.067
12 | CC[C@H](C)[C@@H]1NC(=O)[C@H](CC)N(C)C(=O)C[C@@H](C(=O)N(C)C)N(C)C(=O)[C@H](C2CCCC2)N(C)C(=O)C2(CCC2)NC(=O)[C@@H]2CCCN2C(=O)[C@H](CCc2cc(F)c(C(F)(F)F)c(F)c2)NC(=O)CN(C)C(=O)[C@H](CC2CCC(F)(F)CC2)N2CC/C=C\C[C@@H](C2=O)N(C)C(=O)CN(C)C1=O [PP1461] | – | – | – | – | 0.27 | A (a compound having 10 or more and less than 20 is denoted as A) | A (a compound having 10 or more and less than 20 is denoted as A) | 121 | –
13 | CCCO[C@H](C)[C@@H]1NC(=O)[C@H](COCC)N(C)C(=O)C[C@@H](C(=O)N(C)CC)N(C)C(=O)[C@H](C2CCCC2)N(C)C(=O)C2(CC(C)(C)C2)NC(=O)[C@@H]2C[C@H](C)CN2C(=O)[C@H](CCc2cc(F)c(C(F)(F)F)c(F)c2)NC(=O)CN(C)C(=O)[C@H](Cc2ccc(C)cc2)N2CC/C=C\C[C@@H](C2=O)N(C)C(=O)CN(C)C1=O [PP2426] | 0.31 | AA (a compound having 20 or more is denoted as AA) | A (a compound having 10 or more and less than 20 is denoted as A) | 48 | – | – | – | – | –
14 | CCOC[C@H]1C(=O)N[C@@H]([C@@H](C)CC)C(=O)N(C)CC(=O)N(C)[C@H]2C/C=C\CCN(C2=O)[C@@H](CC2CCC(F)(F)CC2)C(=O)N(C)CC(=O)N[C@@H](CCc2ccc(C(F)(F)F)c(Cl)c2)C(=O)N2C[C@@H](C)C[C@H]2C(=O)NC2(CC(C)(C)C2)C(=O)N(C)[C@@H](C(CC)CC)C(=O)N(C)[C@H](C(=O)N(C)C)CC(=O)N1C [PP2475] | 1.5 | AA (a compound having 20 or more is denoted as AA) | A (a compound having 10 or more and less than 20 is denoted as A) | 176 | – | – | – | – | –
15 | CCC[C@H]1C(=O)N[C@@H](C23CC(C2)C3)C(=O)N(C)CC(=O)N(C)[C@H]2C/C=C\CCN(C2=O)[C@@H](Cc2ccc(C(F)(F)F)cc2)C(=O)N(C)CC(=O)N[C@@H](CCc2ccc(C(F)(F)F)c(OC)c2)C(=O)N2C[C@H](OCC)C[C@H]2C(=O)N(C)C2(CCC2)C(=O)N(C)[C@@H](C2CCCC2)C(=O)N(C)[C@H](C(=O)N(C)C)CC(=O)N1C [PP3341] | – | A (a compound having 10 or more and less than 20 is denoted as A) | A (a compound having 10 or more and less than 20 is denoted as A) | 28.3 | – | – | – | – | 0.46
